Values after ≈ are worked out from the molar mass of the structure shown. Like-named read-outs stand apart in the source and are kept apart here.
Columns and labels:
[1] = Fulvestrant solubility in castor oil based liquid formulations, HPLC assay; assay type: physicochemical; conditions: castor oil q.s., 10% w/v ethanol, 10% w/v benzyl alcohol
Description: To determine the effect of other compounds on the solubility of fulvestrant in a castor oil vehicle containing 10% ethanol and 10% benzyl alcohol, several liquid formulations were prepared by mixing using standard techniques, as summarized in Table 1. Fulvestrant solubility in each formulation was determined by an HPLC assay.

[2] = U.S. Pat. No. 6,774,122, cited from earlier work
[3] = cited from earlier work

solubility ([1]; castor oil based liquid formulation, oil or lipid, 0.05% w/v polysorbate 80, read-out: Solubility): 76.5 mg/mL (≈ 126 mM)
solubility ([1]; castor oil based liquid formulation, oil or lipid, 0.1% w/v polysorbate 80, read-out: Solubility): 82.5 mg/mL (≈ 136 mM)
solubility ([1]; castor oil based liquid formulation, oil or lipid, 0.16% w/v polysorbate 80, read-out: Solubility): 90 mg/mL (≈ 148 mM)
solubility ([1]; castor oil based liquid formulation, oil or lipid, 0.2% w/v polysorbate 80, read-out: Solubility): 95 mg/mL (≈ 157 mM)
solubility ([1]; castor oil based liquid formulation, oil or lipid, 15% w/v ethyl oleate, read-out: Solubility): 66.8 mg/mL (≈ 110 mM)
solubility ([1]; castor oil based liquid formulation, oil or lipid, 15% w/v isopropyl myristate, read-out: Solubility): 63.9 mg/mL (≈ 105 mM)
solubility ([1]; castor oil based liquid formulation, oil or lipid, 15% w/v isopropyl palmitate, read-out: Solubility): 67.6 mg/mL (≈ 111 mM)
solubility ([1]; 0.09% w/v polysorbate 80): 82.1 mg/mL (≈ 135 mM)
Structure (SMILES): C[C@]12CC[C@@H]3c4ccc(O)cc4C[C@@H](CCCCCCCCC[S+]([O-])CCCC(F)(F)C(F)(F)F)[C@H]3[C@@H]1CC[C@@H]2O (stereo partly drawn) [Fulvestrant, 7α-[9-(4,4,5,5,5-pentafluoropentylsulfinyl)nonyl]oestra-1,3,5(10)-triene 3,17 β-diol]
solubility of fulvestrant in a castor oil vehicle ([2]; castor oil vehicle containing 10% ethanol, 10% benzyl alcohol, 15% benzyl benzoate): 65 mg/mL
solubility of fulvestrant in castor oil ([2]; castor oil): 20 mg/mL
solubility in water [3]: practically insoluble in water
